Measured values: patent US6362328B1, “Assays and probes with enzyme labels” (London Biotechnology Limited, priority 1996, dated 2002)

Columns and labels:
[1] = tested on: endogenous "FADPase" in the apoglucose oxidase; experiment: Effect of p-nitrophenyl phosphate on background color generation in the absence of nuclease P1; assay type: biochemical; conditions: p-nitrophenyl phosphate at concentrations up to approximately 5 mM; no nuclease P1; FIG. 3
Procedure: (§1) The effect of the added p-nitrophenyl phosphate on the background color generation in the absence of nuclease P1 was also noted. This background is due to endogenous “FADPase” in the apoglucose oxidase used in the assay. At concentrations up to approximately 5 mM, added p-nitrophenyl phosphate has no effect on nuclease P1, but reduces the background signal by 80-100% (FIG. 3).

nuclease P1 [2] = target: T1, nuclease P1 (Penicillium citrinum, UniProt P24289); experiment: Effect of p-nitrophenyl phosphate on the activity of nuclease P1; assay type: biochemical; parameters: purchased Sigma Chemical Company; conditions: p-nitrophenyl phosphate at concentrations up to approximately 5 mM; FIG. 3
T1 sequence (P24289 1-270): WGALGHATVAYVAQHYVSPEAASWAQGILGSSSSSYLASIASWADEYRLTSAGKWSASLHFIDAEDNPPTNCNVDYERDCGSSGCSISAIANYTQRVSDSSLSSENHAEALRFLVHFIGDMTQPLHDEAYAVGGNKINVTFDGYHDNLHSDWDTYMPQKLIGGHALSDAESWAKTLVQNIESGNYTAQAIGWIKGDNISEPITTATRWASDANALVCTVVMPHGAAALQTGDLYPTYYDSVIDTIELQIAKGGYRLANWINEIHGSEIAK
Procedure: as §1

nuclease P1 [3] = target: T1, nuclease P1; conditions: phosphate 0 to 10 mM; nuclease P1 at pH 6.5, alkaline phosphatase at pH 8.9; FIG. 2
Procedure: A solution of nuclease P1 standardized according to Example 1 was serially diluted in 50 mM citrate buffer adjusted to pH 6.5 with NaOH. The assay mixture contained 20 μM 3′FADP, 0.1 mM 4-aminoantipyrine, 2 mM DHSA, 1 μg horseradish peroxidase, 0.1 M glucose and 0.1 μM apoglucose oxidase in a total volume of 0.1 ml. The change in absorbance was monitored at 520 nm in a Dynatech MR7000 plate reader fitted with a thermostatically controlled plate holder set to 25° C.

[4] = Standardization of nuclease P1 (coupled NADH assay, absorbance at 340 nm); assay type: biochemical; conditions: 22.7 μM solution (1 mg in 1 ml water); 50 mM HEPES pH 7.2; molar extinction coefficient of 6220 for NADH assumed
Procedure: Nuclease P1 (1 mg; obtained from Sigma Chemical Company, batch no: 107F0799) was dissolved in 1 ml of water to give a concentration of 22.7 μM and stored at 4° C. The activity of this solution was assayed in the following mixture: 0.16 mM NADH, 1 mM ATP, 1 mM PEP, 1 mM MgSO4, 20 mM KCl, 0.5 mM adenosine 3′,5′-bisphosphate, 1 U pyruvate kinase, 1 U lactate dehydrogenase and 1 U myokinase in 50 mM HEPES buffer, pH 7.2, in a total volume of 1 ml.

O=[N+]([O-])c1ccc(OP(=O)(O)O)cc1 [p-nitrophenyl phosphate]
reduction of background signal [1]: 80-100%
effect on nuclease P1 activity (nuclease P1 [2]): no effect

phosphate
effect of phosphate on enzyme activity (nuclease P1 [3]): less of an effect on nuclease P1 than on alkaline phosphatase

B1: Nuclease P1: enzyme obtained from Sigma Chemical Company, used as enzyme label (protein, UniProt P24289 1-270, looked up)
Nuclease P1: T1 sequence (P24289 1-270)
activity of nuclease P1 solution [4]: 320 U/ml
